Assay results published in US7018659B2, “Anti-arrhythmic pharmaceutical composition and a process thereof” (Council of Scientific & Industrial Research, priority 2002, dated 2006).

Key:
[1] = tested on: isolated guineapig auricle; test: Aconitine-induced arrhythmia in isolated guineapig auricle; conditions: aconitine 15 ng/ml
Description: Isolated guineapig auricle was prepared after Burn J H (1952). Aconitine (15 ng/ml) when added, set up arrhythmia within (40±5) mins. This novel compound (5 ng/ml) could revert arrhythmia to normal within (45±4.2) mins. The normal functioning state was maintained, observed up to 6 hrs. Again, arrhythmia was set in isolated auricle with 2.25 mM CaCl2. Arrhythmia was reverted to normal with the novel compound (5 ng/ml) within (30±3.36) mins of observation.

[2] = tested on: male Wister albino rats; test: Electrocardiograph studies (hypodynamic heart), aconitine-induced arrhythmia in anaesthetized rats; assay type: in vivo; conditions: aconitine 50 μg/100 g infused through the jugular vein
Description: Electrocardiograph studies were conducted on urethane (1.75 g/kg, i.p) anaesthetized male Wister albino rats (150±10 g). Recordings were obtained in lead II. Aconitine (50 μg/100 g) was infused through the jugular vein and arrhythmia was induced within 30±5 mins.

CCN1C[C@]2(COC)[C@H](O)C[C@H](OC)[C@@]34[C@@H]5C[C@@]6(O)[C@H](OC(=O)c7ccccc7)[C@@H]5[C@@](OC(C)=O)([C@@H]([C@H](OC)[C@H]23)[C@@H]14)[C@@H](O)[C@@H]6OC [Aconitine]
time to set up arrhythmia [1]: ≤ 40 ± 5 min | time to induction of arrhythmia [2]: ≤ 30 ± 5 min
